In PubChem BioAssay (NCI):
Values joined by “and” are separate entries in the source; they are usually repeats but may differ in a detail not shown here. Identical values can stand only once.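 Assay format: 96-well plates, 48-hour exposure. GI50 = concentration required for 50% inhibition of growth. TGI denotes the concentration required for complete inhibition of growth.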

Experiments:
Assay in all cases: growth of human tumour cells (NCI), 48 h
[1] = tested on: BT-549 breast
[2] = tested on: HS 578T breast
[3] = tested on: MCF7 breast
[4] = tested on: MDA-MB-435
[5] = tested on: RPMI-8226 leukemia
[6] = tested on: SK-MEL-28 melanoma
[7] = tested on: DMS 114 small cell lung
[8] = tested on: M19-MEL melanoma
[9] = tested on: XF 498 CNS
[10] = tested on: KM20L2 colon

Row | SMILES | GI50 [1] | TGI [1] | GI50 [2] [µM] | GI50 [3] | TGI [3] | GI50 [4] | TGI [4] | GI50 [5] | TGI [5] | GI50 [6] [µM] | TGI [6] [µM] | TGI [2] [µM] | TGI [7] [µM] | TGI [8] [µM] | TGI [9] [µM] | TGI [10] [µM]
1 | O=C(/C=C/c1ccc(C(F)(F)F)cc1)c1ccc(Nc2nc(NCCO)nc(N3CCOCC3)n2)cc1 | 1.56 µM | 3.09 µM | 2.61 | 1.25 µM | 3.95 µM | 2.23 µM | 5.35 µM | 2.07 µM | 5.71 µM | 3.25 | 11.5 |  |  |  |  | 
2 | CCCCCN(CCCCC)CC(O)c1cc2c(c3ccccc13)CCCC2 (stereo not drawn) | 12.4 µM and 13.8 µM | 25.5 µM and 29.8 µM | 8.51 | 3.65 µM and 4.63 µM | 14.1 µM and 16.7 µM | 7.68 µM and 13.2 µM | 21.9 µM and 36.5 µM | 2.41 µM and 1.5 µM | 7.39 µM and 9.18 µM | 12.1 | 25.5 | 23.9 |  |  |  | 
3 | O=C1C[C@@H]2CCCC[C@@H]2C12SCCS2 |  |  |  |  |  |  |  |  | > 100 µM |  | > 100 |  | > 100 | > 100 | > 100 | 
4 | O=C(CN1C(=O)c2ccccc2C1=O)C(O)CN1C(=O)c2ccccc2C1=O (stereo not drawn) |  | > 100 µM |  |  | > 100 µM |  | > 100 µM |  | > 100 µM |  | > 100 | > 100 |  |  |  | 
5 | CCCCCCCCCCCC[n+]1ccc(C(N)=O)cc1 | 1.93 µM | 4.7 µM | 2.55 | 3.7 µM | 15.4 µM | 3.17 µM | 14.9 µM | 1.34 µM | 4.86 µM | 4.33 | 15 | 8.49 |  |  |  | 
6 | OCCNCCNc1c2ccccc2nc2oc3ccccc3c12 | 13.3 µM | 28.2 µM | 6.8 | 6.01 µM | 29.2 µM | 11.5 µM | 29.3 µM | 4.76 µM | 21.6 µM | 12.1 | 26.5 | 24.1 |  |  |  | 
7 | Clc1ccc2c(c1)-c1ccccc1C1=NCCN12 | 2.41 µM | 9.89 µM | 2.92 | 2.18 µM | 8.58 µM | 2.04 µM | 5.76 µM | 1.91 µM | 4.36 µM | 1.74 | 3.54 | 11.8 |  |  |  | 
8 | N=C(N)c1ccc(-c2ccc(-c3cccs3)s2)nc1 | 4.79 µM | 16.3 µM | 1.55 | 1.32 µM | 3.3 µM | 1.74 µM | 3.42 µM | 0.434 µM | 2.78 µM | 1.7 | 3.65 | 4.66 |  |  |  | 
9 | O=C(CCCCCCC(=O)Nc1ccc2c(c1)/C(=C/c1ccc[nH]1)C(=O)N2)NO | 1.87 µM | 22 µM | 1.01 | 0.437 µM | > 69.6 µM | 0.332 µM | 4.57 µM | 2.9 µM | > 100 µM | 0.372 | 9.3 | > 100 |  |  |  | 
10 | NCCCCN(Cc1nc2ccccc2[nH]1)[C@H]1CCCc2cccnc21 | 22.8 µM | > 100 µM | 19 | 17.8 µM | > 72.7 µM | 17.4 µM | 54.6 µM | 12 µM | 47.6 µM | 14.9 | 34.8 | > 91.4 |  |  |  | 
11 | COc1ccccc1/C=N/N=C(\N)NO |  |  |  |  |  |  |  |  | > 100 µM |  | > 100 |  | > 100 | > 100 |  | 
12 | Cc1cccc2c1C/C(=C1\CCc3c(C)cccc31)C2=O |  |  |  |  |  |  |  |  |  |  | > 100 |  | > 100 | > 100 |  | > 100
13 | O=C(N/N=C\c1ccc(N(CCCl)CCCl)cc1Cl)c1cccnc1 | 22.7 µM | > 76 µM | 31.7 | 1.39 µM | > 82.6 µM | 17.1 µM | 46.1 µM | 12.2 µM | 41.4 µM | 26.5 | > 100 | > 94 |  |  |  | 
14 | c1ccc(SC(CCCCOC2CCCCO2)Sc2ccccc2)cc1 (stereo not drawn) |  |  |  |  |  |  |  |  | > 100 µM |  | > 100 |  | > 100 | > 100 | > 100 | 
15 | COc1cccc2c(=O)c3c(sc12)c(NCCN(C)C)nc1ccccc13 | 2.31 µM | 10.1 µM | 1.69 | 1.25 µM | 2.7 µM | 1.71 µM | 3.2 µM | 1.36 µM | 3.17 µM | 1.92 | 3.49 | 4.81 |  |  |  | 
